These results are taken from US8217085B2 (priority 2009, dated 2012).

Like-named read-outs stand apart in the source and are kept apart here.

Test [1] concerns ATCC strain 43300 Staphylococcus aureus. The note with it: methicillin alone, 12 μg/ml, 30 μg/ml and 60 μg/ml.
Procedure: Additional antibiotic was added every 24 hours. The growth periods tested were 24 (FIG. 5), 48, 72, 96 and 120 hours.
USP<51> Antimicrobial Effectiveness protocol was used as the template experimental paradigm. […] All concentrations were plated out to the 10^−7 dilutions to ascertain cfu/ml. […] Additional antibiotic was added at the initial concentration every 24 hours.
ATCC strain 43300 Staphylococcus aureus was streaked out for isolations. An isolated colony was chosen, streaked again and incubated. Isolate was chosen and then diluted to a McFarland standard of one. The estimated value was then taken to inoculate tubes containing growth media and 12, 30 or 60 μg/ml methicillin with approximately 10^5 cfu/ml. These tubes were incubated and plated for counting cfu.
Material was calculated on a 10 ml volume. Sterile methicillin was added to each experimental condition to a final concentration of 12, 30 or 60 μg/ml antibiotic. Lactose Broth positive controls both with and without the 12 μg/ml, 30 μg/ml, 60 μg/ml antibiotic were inoculated with MRSA. […] Tubes were set up in singlet, but plated in triplicate, as described below.
All tubes were then inoculated with a dilution of the selected ATCC strain 43300 Staphylococcus aureus clone giving a final level of colony forming units of 1.49×10^5/ml (log=5.17). The tubes were incubated at 25° C. and mixed periodically. Antibiotic was re-inoculated every 24 hours at the initial concentration to maintain pressure on the organism. Plating was done at 24, 48, 72, and 120 hours. Each condition was plated by diluting 1 ml of growth material into 9 ml of MLB diluent broth. […] This mixture was serial diluted down to 10^−7 with 1 ml placed in triplicate in a sterile petri dish at each dilution point. 20 mls of TSA was added to each dilution, swirled and allowed to solidify. All dilutions were placed in a 35° C. incubator for 24 to 72 hours. Bacterial colonies on each plate were counted and the average taken then changed into log format.
For test [2], the system named is drug sensitive Staphylococcus aureus. The note with it: Etest system; cited from earlier work.
The test system of test [3] is ATCC strain 43300 Staphylococcus aureus. The note with it: oxacillin alone, 12 μg/ml, 30 μg/ml and 60 μg/ml.
Procedure: Additional antibiotic was added every 24 hours.
USP<51> Antimicrobial Effectiveness protocol was used as the template experimental paradigm. […] All concentrations were plated out to the 10^−7 dilutionsto ascertain cfu/ml. […] Additional antibiotic was added at the initial concentration every 24 hours.
ATCC strain 43300 Staphylococcus aureus was streaked out for isolations. An isolated colony was chosen, streaked again and incubated. Isolate was chosen and then diluted to a McFarland standard of one. The estimated value was then taken to inoculate tubes containing growth media and 12, 30 or 60 μg/ml oxacillin with approximately 10^5 cfu/ml. These tubes were incubated and plated for counting cfu.
Material was calculated on a 10 ml volume. Sterile oxacillin was added to each experimental condition to a final concentration of 12, 30 or 60 μg/ml antibiotic.
All tubes were then inoculated with a dilution of the selected ATCC strain 43300 Staphylococcus aureus clone giving a final level of colony forming units of 3.3×10^5/ml (log=5.52). The tubes were incubated at 25° C. and mixed periodically. Antibiotic was re-inoculated every 24 hours at the initial concentration to maintain pressure on the organism. Plating was done at 24, 48, 72, and 120 hours. Each condition was plated by diluting 1 ml of growth material into 9 ml of MLB diluent broth. […] This mixture was serial diluted down to 10^−7 with 1 ml placed in triplicate in a sterile petri dish at each dilution point. 20 mls of TSA was added to each dilution, swirled and allowed to solidify. All dilutions were placed in a 35° C. incubator for 24 to 72 hours. Bacterial colonies on each plate were counted and the average taken then changed into log format. Any cfu/ml observed greater than 3.3×10^5 (log=5.5) were recorded as >3.3×10^5.

As to `COc1cccc(OC)c1C(=O)N[C@@H]1C(=O)N2[C@@H]1SC(C)(C)[C@@H]2C(=O)O` [methicillin, reference compound], in test [1], the “change in colony forming units from initial inoculum” value is “no significant decrease in colony forming units”.

Consider `Cc1onc(-c2ccccc2)c1C(=O)N[C@@H]1C(=O)N2[C@@H]1SC(C)(C)[C@@H]2C(=O)O` [oxacillin, reference compound], for which, in test [2], the MIC (commonly the least concentration at which growth counts as inhibited) is not above 2 mg/L. In test [3], the “change in colony forming units from initial inoculum” value was “no significant decrease in colony forming units”.
